Data from EP3708565A1, “PYRIMIDINYLOXYPHENYLAMIDINES AND THE USE THEREOF AS FUNGICIDES” (Bayer AG, priority 2020, dated 2020).

Key:
Phakospora pachyrhizi = assay: in vivo preventive test on Phakospora pachyrhizi (soybean rust); conditions: for pest or weed control at 500 ppm: Glycine max, 288 h, 500 ppm of active ingredient, young soybean plants sprayed, inoculated after 24 hours, evaluated 12 days after the inoculation, read-out: efficacy; for efficacy: 500 ppm
Description: Example: in vivo preventive test on Phakospora pachyrhizi (soybean rust)
(§1) The active ingredients were made soluble and homogenized in a mixture of Dimethyl sulfoxide/Acetone/ /Tween® 80 and then diluted in water to the desired concentration.
The young plants of soybean were treated by spraying the active ingredient prepared as described above. Control plants were treated only with an aqueous solution of Acetone/Dimethyl sulfoxide/ […].
After 24 hours, the plants were contaminated by spraying the leaves with an aqueous suspension of Phakosporapachyrhizi spores. The contaminated soybean plants were incubated for 24 hours at 24°C and at 100% relative humidity and then for 11 days at 24°C and at 70-80% relative humidity.
The test was evaluated 12 days after the inoculation. 0% means an efficacy which corresponds to that of the control plants while an efficacy of 100% means that no disease was observed.

Puccinia recondita = assay: in vivo preventive test on Puccinia recondita (brown rust on wheat); conditions: for pest or weed control at 500 ppm: Puccinia recondita, 264 h, 500 ppm of active ingredient, young wheat plants sprayed, inoculated after 24 hours, evaluated 11 days after the inoculation, read-out: efficacy; for efficacy: 500 ppm
Description: Example: in vivo preventive test on Puccinia recondita (brown rust on wheat)
as §1
The young plants of wheat were treated by spraying the active ingredient prepared as described above. Control plants were treated only with an aqueous solution of Acetone/Dimethyl sulfoxide/ Tween® 80.
After 24 hours, the plants were contaminated by spraying the leaves with an aqueous suspension of Puccinia recondita spores. The contaminated wheat plants were incubated for 24 hours at 20°C and at 100% relative humidity and then for 10 days at 20°C and at 70-80% relative humidity.
The test was evaluated 11 days after the inoculation. 0% means an efficacy which corresponds to that of the control plants while an efficacy of 100% means that no disease was observed.

[1] = LogP measurement by HPLC on reversed phase columns (EEC directive 79/831 Annex V.A8); format: physicochemical
Description: If more than one LogP value is available within the same method, all the values are given and separated by "+".
Lambda-max-values were determined using UV-spectra from 200 nm to 400 nm and the peak values of the chromatographic signals.

Sphaerotheca fuliginea = assay: in vivo preventive test on Sphaerotheca fuliginea (powdery mildew on cucurbits); conditions: 500 ppm of active ingredient, young gherkin plants sprayed, inoculated after 24 hours, evaluated 8 days after the inoculation; for pest or weed control at 500 ppm: Podosphaera fuliginea, 192 h, read-out: efficacy
Description: Example: in vivo preventive test on Sphaerotheca fuliginea (powdery mildew on cucurbits)
as §1
The young plants of gherkin were treated by spraying the active ingredient prepared as described above. Control plants were treated only with an aqueous solution of Acetone/Dimethyl sulfoxide/ […].
After 24 hours, the plants were contaminated by spraying the leaves with an aqueous suspension of Sphaerotheca fuliginea spores. The contaminated gherkin plants were incubated for 8 days at 20°C and at 70-80% relative humidity.
The test was evaluated 8 days after the inoculation. 0% means an efficacy which corresponds to that of the control plants while an efficacy of 100% means that no disease was observed.

[2] = reversed phase HPLC column, method [a]: LC-UV, acidic range, 0.1% formic acid in water and acetonitrile as eluent
[3] = reversed phase HPLC column, method [b]: LC-UV, neutral range, 0.001 molar ammonium acetate solution in water and acetonitrile as eluent
[4] = method [a]: LC-UV, acidic range, 0.1% formic acid in water and acetonitrile as eluent
[5] = method [b]: LC-UV, neutral range, 0.001 molar ammonium acetate solution in water and acetonitrile as eluent

| chromatographic logP [1, 2] | chromatographic logP [1, 3] | chromatographic logP [1, 4] | chromatographic logP [1, 5] | Structure (SMILES) | pest or weed control at 500 ppm (Phakospora pachyrhizi) [%] | pest or weed control at 500 ppm (Puccinia recondita) [%] | pest or weed control at 500 ppm (Sphaerotheca fuliginea) [%] | efficacy (Phakospora pachyrhizi) | efficacy (Puccinia recondita) | efficacy (Sphaerotheca fuliginea) |
| --- | --- | --- | --- | --- | --- | --- | --- | --- | --- | --- |
| 1.66 | 4.94 |  |  | CCN(C)C=Nc1cc(C)c(Oc2ccnc(/C=C/C(C)(C)C)n2)cc1C [I.034, N'-[4-[2-[(E)-3,3-dimethylbut-1-enyl]pyrimidin-4-yl]oxy-2,5-dimethylphenyl]-N-ethyl-N-methylmethanimidamide] | ≥ 70 | ≥ 70 | ≥ 70 |  |  |  |
| 1.55 |  |  |  | CCCSc1nccc(Oc2cc(C)c(N=CN(C)CC)cc2C(F)F)n1 [I.036, N'-[5-(difluoromethyl)-2-methyl-4-(2-propylsulfanylpyrimidin-4-yl)oxyphenyl]-N-ethyl-N-methylmethanimidamide] | ≥ 70 | ≥ 70 | ≥ 70 |  |  |  |
| 1.69 | 4.8 |  |  | CCN(C)C=Nc1cc(Br)c(Oc2ccnc(Sc3ccccc3)n2)cc1C [I.037, N'-[5-bromo-2-methyl-4-(2-phenylsulfanylpyrimidin-4-yl)oxyphenyl]-N-ethyl-N-methylmethan-imidamide] | ≥ 70 | ≥ 70 | ≥ 70 |  |  |  |
|  |  | 1.52 | 4.55 | CCN(C)C=Nc1cc(C)c(Oc2ccnc(Sc3ccccc3)n2)cc1C [I.039, N'-[2,5-dimethyl-4-(2-phenylsulfanylpyrimidin-4-yl)oxyphenyl]-N-ethyl-N-methylmethanimid-amide] |  |  |  | at least 70% | at least 70% | at least 70% |
| 1.55 |  |  |  | CCN(C)C=Nc1cc(C)c(Oc2ccnc(SCC3CC3)n2)cc1C [I.040, N'-[4-[2-(cyclopropylmethylsulfanyl)pyrimidin-4-yl]oxy-2,5-dimethylphenyl]-N-ethyl-N-methylmethanimidamide] | ≥ 70 | ≥ 70 | ≥ 70 |  |  |  |
|  |  | 1.6 | 4.67 | CCN(C)C=Nc1cc(C)c(Oc2ccnc(OC3CCCC3)n2)cc1C [I.041, N'-[4-(2-cyclopentyloxypyrimidin-4-yl)oxy-2,5-dimethylphenyl]-N-ethyl-N-methylmethanimid-amide] |  |  |  | at least 70% | at least 70% | at least 70% |
|  |  | 1.63 | 4.82 | CCN(C)C=Nc1cc(C)c(Oc2ccnc(SCc3ccccc3)n2)cc1C [I.042, N'-[4-(2-benzylsulfanylpyrimidin-4-yl)oxy-2,5-dimethylphenyl]-N-ethyl-N-methylmethanimid-amide] |  |  |  | at least 70% | at least 70% | at least 70% |
|  |  | 1.41 | 4.29 | CCN(C)C=Nc1cc(C#N)c(Oc2ccnc(C(C)(C)C)n2)cc1C [I.044, N'-[4-(2-tert-butylpyrimidin-4-yl)oxy-5-cyano-2-methylphenyl]-N-ethyl-N-methylmethanimid-amide] |  |  |  | at least 70% | at least 70% | at least 70% |
| 1.63 | 4.5 |  |  | CCN(C)C=Nc1cc(C)c(Oc2ccnc(SC(C)(C)C)n2)cc1Cl [I.045, N'-[4-(2-tert-butylsulfanylpyrimidin-4-yl)oxy-2-chloro-5-methylphenyl]-N-ethyl-N-methyl-methanimidamide] | ≥ 70 | ≥ 70 | ≥ 70 |  |  |  |

| Structure (SMILES) | chromatographic logP [1, 2] | chromatographic logP [1, 3] | chromatographic logP [1, 4] | chromatographic logP [1, 5] | pest or weed control at 500 ppm (Phakospora pachyrhizi) [%] | pest or weed control at 500 ppm (Puccinia recondita) [%] | pest or weed control at 500 ppm (Sphaerotheca fuliginea) [%] | efficacy (Phakospora pachyrhizi) | efficacy (Puccinia recondita) | efficacy (Sphaerotheca fuliginea) |
| --- | --- | --- | --- | --- | --- | --- | --- | --- | --- | --- |
| CCN(C)C=Nc1cc(C)c(Oc2ccnc(SCC[Si](C)(C)C)n2)cc1C [I.043, N'-[2,5-dimethyl-4-[2-(2-trimethylsilylethylsulfanyl)pyrimidin-4-yl]oxyphenyl]-N-ethyl-N-methylmethanimidamide] |  |  | 2.17 |  | ≥ 70 | ≥ 70 | ≥ 70 |  |  |  |
